According to patent EP4806435A1, “DIHYDROCHROMENE-DERIVATIVE-CONTAINING THERAPEUTIC AGENT FOR CANCER” (Sumitomo Pharma Co., Ltd., priority 2023, dated 2025):

What was measured:
[1] = test system: recurrent malignant glioma classified as WHO grade III or IV; test: Phase 1 clinical trial: preliminary antitumor activity (RANO criteria); assay type: in vivo, human
Protocol: Each treatment cycle was defined as 28 days, during which safety and treatment response were evaluated. Administration to each subject was continued until unacceptable toxicity occurred, consent was withdrawn, the subject was lost to follow-up, or discontinuation was determined by the investigator and/or the sponsor.

[2] = test system: IDH1 R132H mutant U-87 cells; test: Cytotoxicity assay, sphere culture with LDL supplementation (ATP); assay type: cell-based, human; details: 1 µM; 7 days sphere culture; LDL 5 µg/mL
Protocol: U-87 cells were established with a tetracycline-inducible IDH1 R132H mutation expression system. The cells were cultured in the presence of doxycycline (1 µM), a tetracycline derivative, for 5 days to induce the IDH1 R132H mutation. After induction of the mutation, the cells were transferred to sphere culture medium (containing B-27 supplement, epidermal growth factor, cell proliferation factors, insulin, and low-density lipoprotein [LDL]), and cultured for 7 days under sphere-forming conditions after the addition of Compound 1 (1 µM). The LDL concentration in the medium was 5 µg/mL. After incubation, cellular ATP levels were quantified as an indicator of cell viability, and cell viability was calculated as the ratio relative to ATP levels under vehicle-only conditions. Using this approach, the cytotoxic effects of the present compound under LDL-supplemented conditions were compared between wild-type (doxycycline-) and mutant (doxycycline+) cells.

BT142 cells = test: Cytotoxicity assay, LDL-supplemented sphere culture, low-grade glioma line (ATP); assay type: cell-based; details: 1 µM; 7 days; LDL 5 µg/mL; BT142 (IDH1 mutant-type, R132H/-)
Protocol: U-87 cells (IDH1 wild-type) and BT142 cells derived from low-grade glioma (IDH1 mutant-type, R132H/-) were cultured for 7 days in LDL-supplemented sphere medium in the presence or absence of Compound 1 (1 µM). The LDL concentration was 5 µg/mL. After incubation, intracellular ATP levels were quantified as an indicator of cell viability, and cytotoxicity was compared between conditions.

EBP = target: T1, EBP (Homo sapiens, UniProt Q15125); test: Phase 1 clinical trial: pharmacodynamics, Lathosterol/Zymostenol (L/Z) ratio; assay type: in vivo; details: for decrease of mean L/Z ratio: Cycle 1 Day 2 (C1D2), as of April 2024
T1 construct: endogenous in cells; host or cells: Patients with recurrent malignant glioma (WHO grade III or IV), in vivo; sterol ratio assessed in serum
T1 sequence (Q15125 whole entry): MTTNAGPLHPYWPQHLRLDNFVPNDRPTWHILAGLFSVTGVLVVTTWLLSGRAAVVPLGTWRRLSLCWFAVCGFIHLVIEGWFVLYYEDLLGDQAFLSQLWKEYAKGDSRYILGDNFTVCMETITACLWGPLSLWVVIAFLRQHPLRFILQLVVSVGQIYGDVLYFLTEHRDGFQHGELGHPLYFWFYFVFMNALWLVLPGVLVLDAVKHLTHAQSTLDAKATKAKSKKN
Text: As of September 2023, pharmacodynamic assessments had clearly shown that Compound 1 inhibited the target, at least in serum. […] (Figure 5)

B16 cells = test: Efficacy in anti-PD-1 antibody-resistant in vivo model; design: species or system C57BL/6J mice; details: 10 mg/kg, once daily; B16 intradermal; versus nivolumab 5 mg/kg once weekly
Protocol: B16 cells (5 x 10^5 cells; obtained from the JCRB Cell Bank) were intradermally implanted into C57BL/6J mice to establish tumors. On day 12 after implantation, administration of Compound 1 (10 mg/kg, once daily) or an anti-PD-1 antibody (nivolumab, 5 mg/kg, once weekly) was initiated, and the efficacy of each monotherapy group was compared with that of the control group.

## CC1(C)Oc2cc(Cl)ccc2[C@@H]2OCC3(CCN(CCn4ccnc4)CC3)C[C@H]21 [Compound 1, (4'aR,10'bR)-8'-chloro-1-[2-(1H-imidazol-1-yl)ethyl]-5',5'-dimethyl-4'a,10'b-dihydro-2'H,4'H,5'H-spiro[piperidine-4,3'-pyrano[3,2-c][1]benzopyran] diphosphate]
[1]; 180 mg QD and 240 mg QD
  stable disease: prolonged stable disease (SD) was observed
[1]; 360 mg QD and 480 mg daily (240 mg BID)
  discontinuation due to objective disease progression (RANO criteria): most patients discontinued administration of Compound 1 within two months
[1]; Dose Escalation Part, as of September 2023
  patients with preliminary antitumor activity (monotherapy): 4 patients
[1]; first patient with IDH-mutant WHO Grade III glioma, 20 mg QD
  tumor reduction (enhancing lesions, RANO criteria; reduction from baseline): 22%
[1]; patient with 22% tumor reduction
  time remained on study: 15 months
[1]; patient with 100% tumor reduction, as of September 2023
  time remained on study: 13 months
[1]; patient with 100% tumor reduction, cutoff April 21, 2024
  time remained on study: 20 months
[1]; patient with WHO grade III astrocytoma with IDH mutation, 120 mg, after more than one year of treatment
  response: complete response (CR)
[1]; second patient with IDH-mutant WHO Grade III glioma, 120 mg QD
  tumor reduction (enhancing lesions, RANO criteria; reduction from baseline): 100%
[2]
  cytotoxicity in mutant versus wild-type cells: statistically-significantly stronger cytotoxicity in IDH1 R132H mutant cells compared with wild-type cells
BT142 cells
  cytotoxicity: marked cytotoxicity
EBP; 480 mg per day (240 mg BID)
  reduction in the L/Z ratio versus lower dose levels: did not show a greater reduction in the L/Z ratio than those at the 180-360 mg QD dose levels
EBP; 20 mg QD
  decrease of mean L/Z ratio: 70%
EBP; 180 mg and 240 mg QD
  decrease of mean L/Z ratio: 95-97%
EBP; 360 mg QD
  decrease of mean L/Z ratio: 97.5%
EBP; 40-120 mg QD
  decrease of mean L/Z ratio: 85-91%
EBP; Cycle 1 Day 8 (C1D8), 20-360 mg QD, maintained in subsequent cycles
  decrease of L/Z ratio: approximately 100%
EBP; from the 180 mg QD to 360 mg QD dose groups
  blood L/Z ratio across dose groups: remained at a similar level
EBP; serum, starting from 40 mg QD cohort, as of September 2023
  decrease of the ratio of lathosterol and zymostenol (L/Z ratio): over 80%
B16 cells
  tumor growth inhibition as monotherapy: statistically significant inhibition of tumor growth compared with the nivolumab-treated group
